Reference: US20250179055A1, “Substituted 2-(pyrrolidine-3-yl)acetic acid derivative, preparation method and use thereof” (INNOVSTONE THERAPEUTICS LIMITED, priority 2023, published 2025)

What follows are compounds tested against Lp(a) assembly in HepG2 cells overexpressing ApoA protein (Homo sapiens (Human), UniProt P08519) (assay: ELISA assay on screening Lp(a) assembly inhibition). Conditions: not given.
Sequence of Lp(a) assembly in HepG2 cells overexpressing ApoA protein (P08519 20-2040): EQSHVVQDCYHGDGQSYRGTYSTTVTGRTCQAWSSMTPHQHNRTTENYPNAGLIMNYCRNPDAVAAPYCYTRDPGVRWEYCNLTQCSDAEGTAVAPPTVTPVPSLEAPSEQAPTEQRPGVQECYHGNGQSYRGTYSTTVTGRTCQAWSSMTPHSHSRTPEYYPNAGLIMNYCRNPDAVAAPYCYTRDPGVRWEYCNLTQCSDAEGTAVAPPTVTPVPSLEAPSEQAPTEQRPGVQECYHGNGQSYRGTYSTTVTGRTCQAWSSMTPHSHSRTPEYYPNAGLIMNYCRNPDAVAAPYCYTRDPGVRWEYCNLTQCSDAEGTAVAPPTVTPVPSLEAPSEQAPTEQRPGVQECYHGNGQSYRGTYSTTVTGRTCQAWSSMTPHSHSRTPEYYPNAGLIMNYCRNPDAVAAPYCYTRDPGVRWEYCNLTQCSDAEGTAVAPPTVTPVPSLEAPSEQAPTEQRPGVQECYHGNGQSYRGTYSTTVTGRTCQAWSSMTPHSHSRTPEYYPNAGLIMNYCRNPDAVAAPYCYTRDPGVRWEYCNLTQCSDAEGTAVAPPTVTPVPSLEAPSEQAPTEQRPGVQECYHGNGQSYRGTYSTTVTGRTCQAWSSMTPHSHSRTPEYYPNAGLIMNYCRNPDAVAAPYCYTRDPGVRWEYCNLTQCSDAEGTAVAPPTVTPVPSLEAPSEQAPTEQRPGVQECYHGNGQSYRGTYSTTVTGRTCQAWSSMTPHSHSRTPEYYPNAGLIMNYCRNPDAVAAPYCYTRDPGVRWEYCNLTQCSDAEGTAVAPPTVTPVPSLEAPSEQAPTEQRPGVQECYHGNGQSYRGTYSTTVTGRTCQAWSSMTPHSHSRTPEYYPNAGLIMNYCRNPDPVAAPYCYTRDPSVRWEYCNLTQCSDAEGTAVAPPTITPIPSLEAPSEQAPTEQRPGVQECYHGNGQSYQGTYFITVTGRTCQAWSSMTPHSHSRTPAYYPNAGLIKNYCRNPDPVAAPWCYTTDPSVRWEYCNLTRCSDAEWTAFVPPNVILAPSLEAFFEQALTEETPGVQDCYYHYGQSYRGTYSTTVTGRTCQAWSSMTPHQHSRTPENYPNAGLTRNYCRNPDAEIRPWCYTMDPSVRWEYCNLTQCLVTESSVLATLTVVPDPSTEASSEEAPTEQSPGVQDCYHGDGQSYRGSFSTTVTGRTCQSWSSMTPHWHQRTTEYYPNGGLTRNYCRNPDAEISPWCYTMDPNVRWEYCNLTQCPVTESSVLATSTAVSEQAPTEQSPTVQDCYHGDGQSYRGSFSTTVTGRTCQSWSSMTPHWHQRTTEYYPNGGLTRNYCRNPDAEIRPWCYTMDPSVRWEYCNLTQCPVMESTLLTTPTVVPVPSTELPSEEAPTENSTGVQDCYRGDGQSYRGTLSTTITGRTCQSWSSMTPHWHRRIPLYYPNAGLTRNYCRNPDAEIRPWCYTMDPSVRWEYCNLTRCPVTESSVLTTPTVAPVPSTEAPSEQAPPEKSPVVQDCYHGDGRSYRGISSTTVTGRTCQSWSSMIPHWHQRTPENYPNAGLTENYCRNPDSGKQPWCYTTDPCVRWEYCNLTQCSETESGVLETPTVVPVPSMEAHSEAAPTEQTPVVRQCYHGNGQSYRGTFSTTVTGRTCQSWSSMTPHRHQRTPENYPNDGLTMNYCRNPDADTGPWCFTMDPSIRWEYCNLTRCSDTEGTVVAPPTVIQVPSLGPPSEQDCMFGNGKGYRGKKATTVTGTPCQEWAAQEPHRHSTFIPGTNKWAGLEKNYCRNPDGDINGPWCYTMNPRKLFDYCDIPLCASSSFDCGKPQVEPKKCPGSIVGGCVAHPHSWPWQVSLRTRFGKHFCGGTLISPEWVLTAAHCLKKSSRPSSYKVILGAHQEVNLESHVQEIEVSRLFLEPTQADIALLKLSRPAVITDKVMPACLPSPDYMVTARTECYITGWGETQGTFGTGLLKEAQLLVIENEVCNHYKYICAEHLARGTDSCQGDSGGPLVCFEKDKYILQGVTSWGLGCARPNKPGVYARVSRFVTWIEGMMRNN
Assay type: cell-based
Protocol: Test Example 1 and Methods of ELISA Assay on Screening Lp(a) Assembly Inhibition
• 1) Preheated the culture media, DPBS, and pancreatin in a 37° C. water bath in advance. • 2) Digested cells with pancreatin, transferred the cell suspension to a 15 mL centrifuge tube, and centrifuged at 1000 rpm for 5 min. • 3) Resuspended the cells with culture media and transferred the cell suspension to a new T75 cell culture flask. • 4) Cultured at 37° C. in a 5% CO2 incubator.
• 1) Seeded HepG2 cells overexpressing of ApoA protein into a 96-well plate at 100 μL per well and incubated overnight for attachment. • 2) Replaced with fresh culture media the next day, then added diluted compounds, and cultured the cell plate in a 5% CO2, 37° C. incubator for 24 h.
• 1) Added 10 μL of 1.5 M EACA to each well. • 2) Centrifuged at 1000 rpm for 1 min, and transferred 100 μL of cell culture supernatant to a pre-coated ELISA plate.
• 1) Added 100 μL of capture antibody to each well of a pre-coated ELISA plate and incubated overnight at 25° C. • 2) Added 300 μL of washing solution to each well and washed 5 times for 1 min each time. • 3) Added 100 μL of blocking solution to each well and incubated at 25° C. for 2 h. • 4) Added 300 μL of washing solution to each well and washed 5 times for 1 min each time. • 5) Added 100 μL of sample to each well and incubated at 25° C. for 1 h. • 6) Added 300 μL of washing solution to each well and washed 5 times for 1 min each time. • 7) Added 100 μL of detection antibody to each well and incubated at 25° C. for 1 h. • 8) Added 300 μL of washing solution to each well and washed 5 times for 1 min each time. • 9) Added 100 μL substrate solution (Color Reagent A: Color Reagent B, 1:1) to each well and incubated for 20 min at 25° C. in the dark. • 10) Added […] of stop solution to each well, gently blowed and sucked several times with the pipette tip, and read within 5 min.
[formula] • X: cpd concentration • Y: inhibition % • Top and Bottom: Plateaus in same units as Y • log IC50: same log units as X • HillSlope: Slope factor or Hill slope
For `O=C(O)[C@@H](Cc1ncc(CN(Cc2cnc(C[C@H](C(=O)O)[C@H]3CCNC3)s2)Cc2cnc(C[C@H](C(=O)O)[C@H]3CCNC3)s2)s1)[C@H]1CCNC1` [Compound 121, (2S,2′S,2″S)-3,3′,3″-((nitrilotris(methylene))tris(thiazole-5,2-diyl))tris(2-((R)-pyrrolidin-3-yl)propanoic acid)], the IC50 was 1.53 nM.

Same assay, conditions: HepG2 cells overexpressing ApoA protein, 24 h, ELISA of supernatant
`O=C(O)[C@@H](Cc1cc2cc(CN(Cc3ccc4sc(C[C@H](C(=O)O)[C@H]5CCNC5)cc4c3)Cc3ccc4sc(C[C@H](C(=O)O)[C@H]5CCNC5)cc4c3)ccc2s1)[C@H]1CCNC1` [Compound 104, (2S,2′S,2″S)-3,3′,3″-((nitrilotris(methylene))tris(benzo[b]thiophene-5,2-diyl))tris(2-((R)-pyrrolidin-3-yl)propanoic acid)] showed an IC50 of 1.04 nM.
`O=C(O)[C@@H](Cc1cccc(CCN(CCOc2cccc(C[C@H](C(=O)O)[C@H]3CCNC3)c2)C(=O)c2cccc(C[C@H](C(=O)O)[C@H]3CCNC3)c2)c1)[C@H]1CCNC1` [Compound 106, (S)-3-(3-(2-(3-((S)-2-carboxy-2-((R)-pyrrolidin-3-yl)ethyl)-N-(2-(3-((S)-2-carboxy-2-((R)-pyrrolidin-3-yl)ethyl)phenoxy)ethyl)benzamido)ethyl)phenyl)-2-((R)-pyrrolidin-3-yl)propanoic acid] gave an IC50 of 1.84 nM.
With `O=C(O)[C@@H](Cc1cccc(CCN(CCc2cccc(C[C@H](C(=O)O)[C@H]3CCNC3)c2)C(=O)Cc2cccc(C[C@H](C(=O)O)[C@H]3CCNC3)c2)c1)[C@H]1CCNC1` [Compound 107, (2S,2′S)-3,3′-((((2-(3-((S)-2-carboxy-2-((R)-pyrrolidin-3-yl)ethyl)phenyl)acetyl)azanediyl)bis(ethane-2,1-diyl))bis(3,1-phenylene))bis(2-((R)-pyrrolidin-3-yl)propanoic acid)] the IC50 was 1.66 nM.
`O=C(O)[C@@H](Cc1cccc(CCN(CCc2cccc(C[C@H](C(=O)O)[C@H]3CCNC3)c2)C(=O)c2cccc(C[C@H](C(=O)O)[C@H]3CCNC3)c2)c1)[C@H]1CCNC1` [Compound 108, (2S,2′S)-3,3′-((((3-((S)-2-carboxy-2-((R)-pyrrolidin-3-yl)ethyl)benzoyl)azanediyl)bis(ethane-2,1-diyl))bis(3,1-phenylene))bis(2-((R)-pyrrolidin-3-yl)propanoic acid)] was tested, and the IC50 was 1.16 nM.
For `O=C(CN(CCOc1cccc(C[C@H](C(=O)O)[C@H]2CCNC2)c1)CCOc1cccc(C[C@H](C(=O)O)[C@H]2CCNC2)c1)c1cccc(C[C@H](C(=O)O)[C@H]2CCNC2)c1` [Compound 112, (2S,2′S)-3,3′-(((((2-(3-((S)-2-carboxy-2-((R)-pyrrolidin-3-yl)ethyl)phenyl)-2-oxoethyl)azanediyl)bis(ethane-2,1-diyl))bis(oxy))bis(3,1-phenylene))bis(2-((R)-pyrrolidin-3-yl)propanoic acid)], the IC50 was 3.4 nM.
In the case of `O=C(O)[C@@H](Cc1cccc(CN2CCN(Cc3cccc(C[C@H](C(=O)O)[C@H]4CCNC4)c3)CC2)c1)[C@H]1CCNC1` [Compound 117, (2S,2′S)-3,3′-((piperazine-1,4-diylbis(methylene))bis(3,1-phenylene))bis(2-((R)-pyrrolidin-3-yl)propanoic acid)], the IC50 is reported as 2.58 nM.
Work on `O=C(O)[C@@H](Cc1cccc(COc2cc(OCc3cccc(C[C@H](C(=O)O)[C@H]4CCNC4)c3)cc(OCc3cccc(C[C@H](C(=O)O)[C@H]4CCNC4)c3)c2)c1)[C@H]1CCNC1` [Compound 122, (2S,2′S,2″S)-3,3′,3″-(((benzene-1,3,5-triyltris(oxy))tris(methylene))tris(benzene-3,1-diyl))tris(2-((R)-pyrrolidin-3-yl)propanoic acid)] yielded an IC50 of 1.87 nM.
`O=C(O)[C@@H](Cc1cccc(CN(Cc2cccc(C[C@H](C(=O)O)[C@H]3CCNC3)c2)Cc2ccc3oc(C[C@H](C(=O)O)[C@H]4CCNC4)cc3c2)c1)[C@H]1CCNC1` [Compound 126, (2S,2′S)-3,3′-(((((2-((S)-2-carboxy-2-((R)-pyrrolidin-3-yl)ethyl)benzofuran-5-yl)methyl)azanediyl)bis(methylene))bis(3,1-phenylene))bis(2-((R)-pyrrolidin-3-yl)propanoic acid)] gave an IC50 of 1.26 nM.
In the case of `O=C(O)[C@@H](Cc1csc2ccc(CN(Cc3ccc4scc(C[C@H](C(=O)O)[C@H]5CCNC5)c4c3)Cc3ccc4scc(C[C@H](C(=O)O)[C@H]5CCNC5)c4c3)cc12)[C@H]1CCNC1` [Compound 128, (2S,2′S,2″S)-3,3′,3″-((nitrilotris(methylene))tris(benzo[b]thiophene-5,3-diyl))tris(2-((R)-pyrrolidin-3-yl)propanoic acid)], the IC50 is reported as 1.34 nM.
In the case of `O=C(CN(Cc1cccc(C[C@H](C(=O)O)[C@H]2CCNC2)c1)Cc1cccc(C[C@H](C(=O)O)[C@H]2CCNC2)c1)c1cccc(C[C@H](C(=O)O)[C@H]2CCNC2)c1` [Compound 130, (2S,2′S)-3,3′-((((2-(3-((S)-2-carboxy-2-((R)-pyrrolidin-3-yl)ethyl)phenyl)-2-oxoethyl)azanediyl)bis(methylene))bis(3,1-phenylene))bis(2-((R)-pyrrolidin-3-yl)propanoic acid)], the IC50 is reported as 1.45 nM.
`O=C(O)[C@@H](Cc1cccc(COCC2CN(Cc3cccc(C[C@H](C(=O)O)[C@H]4CCNC4)c3)CCN2Cc2cccc(C[C@H](C(=O)O)[C@H]3CCNC3)c2)c1)[C@H]1CCNC1` (stereo partly drawn) [Compound 132, (2S,2′S)-3,3′-(((2-(((3-((S)-2-carboxy-2-((R)-pyrrolidin-3-yl)ethyl)benzyl)oxy)methyl)piperazine-1,4-diyl)bis(methylene))bis(3,1-phenylene))bis(2-((R)-pyrrolidin-3-yl)propanoic acid)] gave an IC50 of 0.88 nM.
With `Cn1c(C[C@H](C(=O)O)[C@H]2CCNC2)nc2ccc(CN(Cc3ccc4nc(C[C@H](C(=O)O)[C@H]5CCNC5)n(C)c4c3)Cc3ccc4nc(C[C@H](C(=O)O)[C@H]5CCNC5)n(C)c4c3)cc21` [Compound 133, (2S,2′S,2″S)-3,3′,3″-((nitrilotris(methylene))tris(1-methyl-1H-benzo[d]imidazole-6,2-diyl))tris(2-((R)-pyrrolidin-3-yl)propanoic acid)] the IC50 was 0.94 nM.
`O=C(O)[C@@H](Cc1cccc(CN(CCOc2cccc(C[C@H](C(=O)O)[C@H]3CCNC3)c2)C(=O)CNc2cccc(C[C@H](C(=O)O)[C@H]3CCNC3)c2)c1)[C@H]1CCNC1` [Compound 134, (S)-3-(3-((2-((3-((S)-2-carboxy-2-((R)-pyrrolidin-3-yl)ethyl)benzyl)(2-(3-((S)-2-carboxy-2-((R)-pyrrolidin-3-yl)ethyl)phenoxy)ethyl)amino)-2-oxoethyl)amino)phenyl)-2-((R)-pyrrolidin-3-yl)propanoic acid] was tested, and the IC50 was 0.85 nM.
In the case of `O=C(O)[C@@H](Cc1cccc(CN(CCOc2cccc(C[C@H](C(=O)O)[C@H]3CCNC3)c2)C(=O)COc2cccc(C[C@H](C(=O)O)[C@H]3CCNC3)c2)c1)[C@H]1CCNC1` [Compound 135, (S)-3-(3-(2-((3-((S)-2-carboxy-2-((R)-pyrrolidin-3-yl)ethyl)benzyl)(2-(3-((S)-2-carboxy-2-((R)-pyrrolidin-3-yl)ethyl)phenoxy)ethyl)amino)-2-oxoethoxy)phenyl)-2-((R)-pyrrolidin-3-yl)propanoic acid], the IC50 is reported as 0.71 nM.
With `O=C(O)[C@@H](Cc1csc(CN(Cc2cc(C[C@H](C(=O)O)[C@H]3CCNC3)cs2)Cc2cc(C[C@H](C(=O)O)[C@H]3CCNC3)cs2)c1)[C@H]1CCNC1` [Compound 137, (2S,2′S,2″S)-3,3′,3″-((nitrilotris(methylene))tris(thiophene-5,3-diyl))tris(2-((R)-pyrrolidin-3-yl)propanoic acid)] the IC50 was 1.08 nM.
For `O=C(O)[C@@H](Cc1cccc(CN(CCOc2cccc(C[C@H](C(=O)O)[C@H]3CCNC3)c2)C(=O)Oc2cccc(C[C@H](C(=O)O)[C@H]3CCNC3)c2)c1)[C@H]1CCNC1` [Compound 139, (S)-3-(3-(2-((3-((S)-2-carboxy-2-((R)-pyrrolidin-3-yl)ethyl)benzyl)((3-((S)-2-carboxy-2-((R)-pyrrolidin-3-yl)ethyl)phenoxy)carbonyl)amino)ethoxy)phenyl)-2-((R)-pyrrolidin-3-yl)propanoic acid], the IC50 was 0.66 nM.
Work on `O=C(O)[C@@H](Cc1cccc(CCC(=O)N(CCOc2cccc(C[C@H](C(=O)O)[C@H]3CCNC3)c2)Cc2cccc(C[C@H](C(=O)O)[C@H]3CCNC3)c2)c1)[C@H]1CCNC1` [Compound 140, (S)-3-(3-(3-((3-((S)-2-carboxy-2-((R)-pyrrolidin-3-yl)ethyl)benzyl)(2-(3-((S)-2-carboxy-2-((R)-pyrrolidin-3-yl)ethyl)phenoxy)ethyl)amino)-3-oxopropyl)phenyl)-2-((R)-pyrrolidin-3-yl)propanoic acid] yielded an IC50 of 0.79 nM.
